Holding throughout (assay type): cell-based
In one experiment the test system is Escherichia coli. The experiment is described as follows: in vitro antibacterial activity. As to conditions: commonly employed in vitro techniques. The source says: (§1) It is particularly inimical to Proteus mirabilis and Escherichia coli at levels of 1.4 to 5.5×10^-5 molar in commonly employed in vitro techniques for determining antibacterial activity.
A further experiment relates to Proteus mirabilis. The experiment can be described thus: in vitro antibacterial activity. To be noted: commonly employed in vitro techniques.
Text: as §1

Experiment [1] concerns the target T1, urease of intact Proteus mirabilis cells (Proteus mirabilis, UniProt P17086).
T1 construct: using intact Proteus mirabilis cells as the source of urease; endogenous in cells
The experiment is described as follows: anti-urease potency using intact Proteus mirabilis cells as the source of urease. As to conditions: 40 minutes preincubation, pH 8.0, ammonia formed in five minutes after addition of urea; read-out: concentration evincing a 50% inhibition of the urease of intact Proteus mirabilis cells. How it is done: The anti-urease potency of the compound of this invention was determined using intact Proteus mirabilis cells as the source of urease. Compounds were preincubated with Proteus mirabilis cells suspended in a saline solution (0.1 molar) buffered with 0.1 molar tris(hydroxymethyl)aminomethane (pH 8.0). After 40 minutes preincubation, the remaining urease activity was determined by collecting the ammonia formed in five minutes after the addition of the substrate, urea. Ammonia assays were carried out according to the procedure of Seligson and Seligson [J. Lab. Clin. Med. 38, 324-330 (1951)]. Percent inhibition was calculated by comparing the amount of ammonia generated by cells preincubated with 3-[[(4-aminophenyl)sulfonyl]amino]-N-[diaminophosphinyl]-benzamide with the controls, in which preincubation was carried out in the absence of compound.

pIC50: −log10 of the molar value.

T1 sequence (P17086 whole entry): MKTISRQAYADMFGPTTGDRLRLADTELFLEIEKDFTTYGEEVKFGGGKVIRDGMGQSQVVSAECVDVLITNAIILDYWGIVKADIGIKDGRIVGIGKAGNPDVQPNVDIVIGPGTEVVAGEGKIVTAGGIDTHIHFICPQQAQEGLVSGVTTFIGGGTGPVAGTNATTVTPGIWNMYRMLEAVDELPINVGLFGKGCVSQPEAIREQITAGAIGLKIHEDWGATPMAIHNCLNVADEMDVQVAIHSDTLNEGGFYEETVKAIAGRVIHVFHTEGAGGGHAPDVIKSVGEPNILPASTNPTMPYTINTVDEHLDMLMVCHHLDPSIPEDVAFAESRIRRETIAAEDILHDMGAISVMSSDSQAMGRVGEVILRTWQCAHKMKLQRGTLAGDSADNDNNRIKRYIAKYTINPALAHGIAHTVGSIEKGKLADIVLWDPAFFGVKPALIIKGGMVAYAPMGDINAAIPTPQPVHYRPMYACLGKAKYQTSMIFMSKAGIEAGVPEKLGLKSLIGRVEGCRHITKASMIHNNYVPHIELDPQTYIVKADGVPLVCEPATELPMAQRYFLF

For `Nc1ccc(S(=O)(=O)Nc2cccc(C(=O)NP(N)(N)=O)c2)cc1` [3-[[(4-aminophenyl)sulfonyl]amino]-N-[diaminophosphinyl]-benzamide], the “antibacterial activity level (inimical concentration)” value in the experiment on Escherichia coli and in the experiment with Proteus mirabilis was 1.4 to 5.5×10^-5 molar throughout. For the same compound, the pIC50 in experiment [1] was 5.70.

The values above are taken from patent publication US4221730A, “3-[[(4-Aminophenyl)sulfonyl]amino]-N-[diaminophosphinyl]-benzamide” (Morton-Norwich Products, Inc., priority 1979, dated 1980).
